Experiments:
[1] = tested on: MOLM13 and MOLM13 NRAS G12D cells; experiment: Cell growth of inducible MOLM13 NRAS G12D cells; assay type: cell-based, human; settings: 15 nM, doxycycline induction
Procedure: with DAPI in 0.1% Triton-X (ThermoFisher Scientific) PBS for 30 minutes at room temperature and protected from light. The DNA content was determined using a BD LSR II flow cytometer. The cell cycle distribution was […]
Cells that grow out of the CFU assays were washed with PBS twice to remove MethoCult. 100,000 cells were spun down on the slides using cytology funnels (Fisherbrand) in a cytocentrifuge at 600 rpm for 5 minutes.
Slides were then air dried overnight and stained with Hema 3 Stain Set (Thermo Fisher) according to manufacturer’s instructions. Images of the slides were taken at the Campus Microscopy & Imaging Facility Shared Resources here at OSUCCC using the light microscopy Zeiss Axioskop system.
Inducible MOLM13 NRAS G12D Cells
NRAS cDNA was cloned into pLVX -TetOne-Puro vector (Takara Bio USA). Site -directed mutagenesis to generate G12D mutation was carried out using the QuikChange II XL Site-Directed Mutagenesis Kit (Aligent) .
Mutagenesis primers were designed using the QuikChange Primer Design program and synthesized by Integrated DNA Technologies (IDT). Lentiviral production was carried out using the Lenti-X Packaging Single Shots (Takara Bio USA) according to manufactures protocol. Viral supernatant was then concentrated using PEG-it virus precipitation solution (System Biosciences). […]
Cells were counted every 2-3 days via Trypan […]

[2] = tested on: primary FLT3-ITD/IDH2-R140Q murine leukemia cells; experiment: CellTiterGlo viability assay, ex vivo; assay type: cell-based; settings: Mus musculus, 72 hours
Procedure: (§1) Drug treatments were carried out for 72 hours. Details are provided in the Supplemental Methods.
(§2) Cell viability of primary samples […]
(§3) For murine or human primary AML cells, 100,000 cells/well were plated in a 96-well plate and treated with increasing concentrations of drug. Cell viability, via trypan blue, was measured every 24 hours. If the viability fell below 50% or at 72 hours of treatment, whichever came earlier, cell viability of each plate was measured via

[3] = tested on: primary FLT3-ITD/MLL-PTD murine leukemia cells; experiment: CellTiterGlo viability assay, ex vivo; assay type: cell-based; settings: Mus musculus, 72 hours
Procedure: as §1, §2
as §3, with “measured via CellTiter-Glo. Primary human AML cells were obtained from the OSUCCC Leukemia Tissue Bank Shared […]” for “measured via”

[4] = tested on: MV4-11 cells; experiment: CFU assay with IL-3, GM-CSF or FGF2; assay type: cell-based, human; settings: 7-day MV4-11 CFU assay
Procedure: (§4) For human primary CFU assays, cells were cultured in MethoCult H4035 Optimum without EPO (Stemcell Technologies). For mouse primary CFU assays, cells were directly cultured in MethoCult M3231 (Stemcell Technologies) supplemented with 45 ng/mL of murine IL-6 (mIL-6), mIL-3, and mSCF. Both human and mouse primary cells 10,000 cells were plated in duplicate for each drug concentration. For cell line CFU assays, MV4-11 cells were treated with drugs in the presence of 20 ng/mL IL-3, GM-CSF, or FGF2. Cells were plated in MethoCult H4230 (Stemcell Technologies) in duplicates at 250 cells/plate. Plates were placed in a 37°C incubator for 7 or 14 days for human cell lines and for mouse or human primary cells, respectively. Colonies were identified as clusters containing 40 or more cells. For CFU assays using human primary CD34^+ cells, umbilical cord blood was obtained from the OSU Comprehensive Cancer Center (CCC) Leukemia Tissue Bank Shared Resource, and mononuclear cells were isolated by using density gradient centrifugation. CD34^+ cells were purified using the CD34 UltraPure MicroBead Kit (Miltenyi Biotec) according to the manufacturer’s instructions. CFU assay with CD34^+ cells was performed as described above, and the total number of colonies were counted after 7–10 days.

[5] = tested on: MOLM13 cells; experiment: MOLM13 viability ± coculture with HS5-GFP MSCs (MTT); assay type: cell-based; settings: Homo sapiens, read-out: IC50 viability
Procedure: Drug treatments were carried out for 72 hours. Details are provided in the Supplemental Methods. […]
HS5-GFP human bone marrow stromal cells were plated and cultured for 72 hours to near confluence.
MOLM13 cells were then seeded onto HS5-GFP cells to establish a co-culture. Twenty-four hours later, cells
were treated with increasing concentrations of drug for an additional 72 hours. MOLM13 and HS5-GFP cells
were then separated and MTT assay s were performed for cell viability assessment of each cell population. […]

[6] = tested on: MOLM13 cells; experiment: MOLM13 viability ± cytokines (MTT); settings: Homo sapiens
[7] = tested on: primary FLT3-ITD/IDH2-R140Q murine leukemia cells; experiment: CFU assay; assay type: cell-based, mouse; settings: for Colony formation: 20 nM and 50 nM
Procedure: as §4, with “Plates were placed in a 37°C incubator for 7 or 14 days for human cell lines and for mouse or human primary cells, respectively.” left out

[8] = tested on: primary FLT3-ITD/MLL-PTD murine leukemia cells; experiment: CFU assay; assay type: cell-based, mouse; settings: 20 nM and 50 nM
Procedure: as §4, with “Plates were placed in a 37°C incubator for 7 or 14 days for human cell lines and for mouse or human primary cells, respectively.” left out

[9] = MOLM-13, MOLM13 + HS5-GFP co-culture
[10] = MOLM-13, MOLM13 alone (co-culture experiment)
[11] = MOLM-13, read-out: IC50 viability, MOLM13 + GM-CSF
[12] = MOLM-13, read-out: IC50 viability, MOLM13 + IL3
[13] = MOLM-13, read-out: IC50 viability, MOLM13 + IL3, IL6, GM-CSF
[14] = MOLM-13, read-out: IC50 viability, MOLM13 + IL6
[15] = MOLM-13, read-out: IC50 viability, MOLM13, no cytokine

Structure (SMILES)	Cell growth [1]	IC50 [2]	IC50 [3]	Colony formation with IL-3, GM-CSF, or FGF2 [4]	IC50 [5, 9]	IC50 [5, 10]	IC50 [6, 11]	IC50 [6, 12]	IC50 [6, 13]	IC50 [6, 14]	IC50 [6, 15]	Colony formation [7]	Colony formation [8]	Colonies ([7]; 50nM, 7 day CFU assay)
CCc1nc(C(N)=O)c(Nc2ccc(N3CCC(N4CCN(C)CC4)CC3)c(OC)c2)nc1NC1CCOCC1 [Gilteritinib, gilteritinib]	resistant phenotype	2.6 µM	1.55 µM	partially rescued	0.084 µM	0.017 µM	0.0148 µM	0.0119 µM	0.0184 µM	0.0107 µM	0.0079 µM	modest activity	no activity	
CN1CCN(Cc2ccc(Nc3ncc(Cl)c(Nc4ccccc4S(=O)(=O)N(C)C)n3)cc2)CC1 [TP-0903]	complete loss of viable cells	0.3 µM	0.4 µM	significantly inhibited colony formation	0.053 µM	0.031 µM	0.0101 µM	0.0069 µM	0.0081 µM	0.0094 µM	0.0074 µM	inhibited colony formation	inhibited colony formation	0 colonies

— paper PMC7714403 (JCI Insight, 2020)
